In ChEMBL document CHEMBL1140602, “A simple, yet highly accurate, QSAR model captures the complement inhibitory activity of compstatin” (Bioorg Med Chem, 2007) one finds logIC50 data, which are given here for 23 compounds.

The test is described as follows: Inhibition of C3b activation relative to compstatin.

`CC[C@H](C)[C@H](N)C(=O)N[C@H]1CSSC[C@@H](C(=O)N[C@H](C(=O)O)[C@@H](C)O)NC(=O)[C@H](CCCNC(=N)N)NC(=O)[C@H](Cc2cnc[nH]2)NC(=O)[C@H](C)NC(=O)CNC(=O)[C@H](Cc2c[nH]c3ccccc23)NC(=O)[C@H](CC(=O)O)NC(=O)[C@H](CCC(N)=O)NC(=O)[C@H](C2Cc3ccccc3C2)NC(=O)[C@H](C(C)C)NC1=O` registered a logIC50 of 1.55. As to `CC[C@H](C)[C@H](N)C(=O)N[C@H]1CSSC[C@@H](C(=O)N[C@H](C(=O)O)[C@@H](C)O)NC(=O)[C@H](CCCNC(=N)N)NC(=O)[C@H](Cc2cnc[nH]2)NC(=O)[C@H](C)NC(=O)CNC(=O)[C@H](Cc2c[nH]c3ccccc23)NC(=O)[C@H](CC(=O)O)NC(=O)[C@H](CCC(N)=O)NC(=O)[C@H](Cc2ccc3ccccc3c2)NC(=O)[C@H](C(C)C)NC1=O`, the logIC50 turned out to be 1.58. `CC[C@H](C)[C@H](N)C(=O)N[C@H]1CSSC[C@@H](C(=O)N[C@H](C(N)=O)[C@@H](C)O)NC(=O)[C@H](CCCNC(=N)N)NC(=O)[C@H](Cc2cnc[nH]2)NC(=O)[C@H](Cc2cnc[nH]2)NC(=O)CNC(=O)[C@H](Cc2c[nH]c3ccccc23)NC(=O)[C@H](CC(=O)O)NC(=O)[C@H](CCC(N)=O)NC(=O)[C@H](C(C)C)NC(=O)[C@H](C(C)C)NC1=O` registered a logIC50 of 0. The figure for `CC[C@H](C)[C@H](NC(C)=O)C(=O)N[C@H]1CSSC[C@@H](C(=O)N[C@H](C(=O)O)[C@@H](C)O)NC(=O)[C@H](CCCNC(=N)N)NC(=O)[C@H](Cc2cnc[nH]2)NC(=O)[C@H](C)NC(=O)CNC(=O)[C@H](Cc2c[nH]c3ccccc23)NC(=O)[C@H](CC(=O)O)NC(=O)[C@H](CCC(N)=O)NC(=O)[C@@H](Cc2csc3ccccc23)NC(=O)[C@H](C(C)C)NC1=O` is 1.83; for `CC[C@H](C)[C@H](NC(C)=O)C(=O)N[C@H]1CSSC[C@@H](C(=O)N[C@H](C(=O)O)[C@@H](C)O)NC(=O)[C@H](CCCNC(=N)N)NC(=O)[C@H](Cc2cnc[nH]2)NC(=O)[C@H](C)NC(=O)CNC(=O)[C@H](Cc2c[nH]c3ccccc23)NC(=O)[C@H](CC(=O)O)NC(=O)[C@H](CCC(N)=O)NC(=O)[C@H](Cc2ccc(C(=O)c3ccccc3)cc2)NC(=O)[C@H](C(C)C)NC1=O` it is 1.69; for `CC[C@H](C)[C@H](NC(C)=O)C(=O)N[C@H]1CSSC[C@@H](C(=O)N[C@H](C(=O)O)[C@@H](C)O)NC(=O)[C@H](CCCNC(=N)N)NC(=O)[C@H](Cc2cnc[nH]2)NC(=O)[C@H](C)NC(=O)CNC(=O)[C@H](Cc2c[nH]c3ccccc23)NC(=O)[C@H](CC(=O)O)NC(=O)[C@H](CCC(N)=O)NC(=O)[C@H](Cc2cccc3ccccc23)NC(=O)[C@H](C(C)C)NC1=O` it is 1.47. The compound `CC[C@H](C)[C@H](NC(C)=O)C(=O)N[C@H]1CSSC[C@@H](C(=O)N[C@H](C(N)=O)[C@@H](C)O)NC(=O)[C@H](CCCNC(=N)N)NC(=O)[C@H](Cc2cnc[nH]2)NC(=O)[C@H](C)NC(=O)CNC(=O)[C@H](Cc2c[nH]c3cc(F)ccc23)NC(=O)[C@H](CC(=O)O)NC(=O)[C@H](CCC(N)=O)NC(=O)[C@H](Cc2c[nH]c3cc(F)ccc23)NC(=O)[C@H](C(C)C)NC1=O` gave a logIC50 of 2.1. `CC[C@H](C)[C@H](NC(C)=O)C(=O)N[C@H]1CSSC[C@@H](C(=O)N[C@H](C(N)=O)[C@@H](C)O)NC(=O)[C@H](CCCNC(=N)N)NC(=O)[C@H](Cc2cnc[nH]2)NC(=O)[C@H](C)NC(=O)CNC(=O)[C@H](Cc2c[nH]c3ccc(F)cc23)NC(=O)[C@H](CC(=O)O)NC(=O)[C@H](CCC(N)=O)NC(=O)[C@H](Cc2c[nH]c3ccccc23)NC(=O)[C@H](C(C)C)NC1=O` returned a logIC50 of 2.08. In turn, `CC[C@H](C)[C@H](NC(C)=O)C(=O)N[C@H]1CSSC[C@@H](C(=O)N[C@H](C(N)=O)[C@@H](C)O)NC(=O)[C@H](CCCNC(=N)N)NC(=O)[C@H](Cc2cnc[nH]2)NC(=O)[C@H](C)NC(=O)CNC(=O)[C@H](Cc2c[nH]c3ccc(F)cc23)NC(=O)[C@H](CC(=O)O)NC(=O)[C@H](CCC(N)=O)NC(=O)[C@H](Cc2cn(C)c3ccccc23)NC(=O)[C@H](C(C)C)NC1=O` had a logIC50 of 2.42. `CC[C@H](C)[C@H](NC(C)=O)C(=O)N[C@H]1CSSC[C@@H](C(=O)N[C@H](C(N)=O)[C@@H](C)O)NC(=O)[C@H](CCCNC(=N)N)NC(=O)[C@H](Cc2cnc[nH]2)NC(=O)[C@H](C)NC(=O)CNC(=O)[C@H](Cc2c[nH]c3ccc(O)cc23)NC(=O)[C@H](CC(=O)O)NC(=O)[C@H](CCC(N)=O)NC(=O)[C@H](Cc2c[nH]c3ccc(O)cc23)NC(=O)[C@H](C(C)C)NC1=O` showed a logIC50 of 0.211.

Consider `CC[C@H](C)[C@H](NC(C)=O)C(=O)N[C@H]1CSSC[C@@H](C(=O)N[C@H](C(N)=O)[C@@H](C)O)NC(=O)[C@H](CCCNC(=N)N)NC(=O)[C@H](Cc2cnc[nH]2)NC(=O)[C@H](C)NC(=O)CNC(=O)[C@H](Cc2c[nH]c3ccccc23)NC(=O)[C@H](CC(=O)O)NC(=O)[C@H](CCC(N)=O)NC(=O)[C@H](C2Cc3ccccc3C2)NC(=O)[C@H](C(C)C)NC1=O`, for which the logIC50 worked out at 1.58.

With `CC[C@H](C)[C@H](NC(C)=O)C(=O)N[C@H]1CSSC[C@@H](C(=O)N[C@H](C(N)=O)[C@@H](C)O)NC(=O)[C@H](CCCNC(=N)N)NC(=O)[C@H](Cc2cnc[nH]2)NC(=O)[C@H](C)NC(=O)CNC(=O)[C@H](Cc2c[nH]c3ccccc23)NC(=O)[C@H](CC(=O)O)NC(=O)[C@H](CCC(N)=O)NC(=O)[C@H](CC2CCCCC2)NC(=O)[C@H](C(C)C)NC1=O`, the logIC50 worked out at 0.056. Regarding `CC[C@H](C)[C@H](NC(C)=O)C(=O)N[C@H]1CSSC[C@@H](C(=O)N[C@H](C(N)=O)[C@@H](C)O)NC(=O)[C@H](CCCNC(=N)N)NC(=O)[C@H](Cc2cnc[nH]2)NC(=O)[C@H](C)NC(=O)CNC(=O)[C@H](Cc2c[nH]c3ccccc23)NC(=O)[C@H](CC(=O)O)NC(=O)[C@H](CCC(N)=O)NC(=O)[C@H](Cc2c[nH]c3ccc(C)cc23)NC(=O)[C@H](C(C)C)NC1=O`, the logIC50 stood at 1.79.

In the case of `CC[C@H](C)[C@H](NC(C)=O)C(=O)N[C@H]1CSSC[C@@H](C(=O)N[C@H](C(N)=O)[C@@H](C)O)NC(=O)[C@H](CCCNC(=N)N)NC(=O)[C@H](Cc2cnc[nH]2)NC(=O)[C@H](C)NC(=O)CNC(=O)[C@H](Cc2c[nH]c3ccccc23)NC(=O)[C@H](CC(=O)O)NC(=O)[C@H](CCC(N)=O)NC(=O)[C@H](Cc2c[nH]c3ccccc23)NC(=O)[C@H](C(C)C)NC1=O`, the logIC50 was 1.65. Turning to `CC[C@H](C)[C@H](NC(C)=O)C(=O)N[C@H]1CSSC[C@@H](C(=O)N[C@H](C(N)=O)[C@@H](C)O)NC(=O)[C@H](CCCNC(=N)N)NC(=O)[C@H](Cc2cnc[nH]2)NC(=O)[C@H](C)NC(=O)CNC(=O)[C@H](Cc2c[nH]c3ccccc23)NC(=O)[C@H](CC(=O)O)NC(=O)[C@H](CCC(N)=O)NC(=O)[C@H](Cc2ccc(C(=O)c3ccccc3)cc2)NC(=O)[C@H](C(C)C)NC1=O`, the logIC50 worked out at 1.95. In turn, `CC[C@H](C)[C@H](NC(C)=O)C(=O)N[C@H]1CSSC[C@@H](C(=O)N[C@H](C(N)=O)[C@@H](C)O)NC(=O)[C@H](CCCNC(=N)N)NC(=O)[C@H](Cc2cnc[nH]2)NC(=O)[C@H](C)NC(=O)CNC(=O)[C@H](Cc2c[nH]c3ccccc23)NC(=O)[C@H](CC(=O)O)NC(=O)[C@H](CCC(N)=O)NC(=O)[C@H](Cc2ccc(O)cc2)NC(=O)[C@H](C(C)C)NC1=O` showed a logIC50 of 1.17. `CC[C@H](C)[C@H](NC(C)=O)C(=O)N[C@H]1CSSC[C@@H](C(=O)N[C@H](C(N)=O)[C@@H](C)O)NC(=O)[C@H](CCCNC(=N)N)NC(=O)[C@H](Cc2cnc[nH]2)NC(=O)[C@H](C)NC(=O)CNC(=O)[C@H](Cc2c[nH]c3ccccc23)NC(=O)[C@H](CC(=O)O)NC(=O)[C@H](CCC(N)=O)NC(=O)[C@H](Cc2cccc3ccccc23)NC(=O)[C@H](C(C)C)NC1=O` registered a logIC50 of 1.99. `CC[C@H](C)[C@H](NC(C)=O)C(=O)N[C@H]1CSSC[C@@H](C(=O)N[C@H](C(N)=O)[C@@H](C)O)NC(=O)[C@H](CCCNC(=N)N)NC(=O)[C@H](Cc2cnc[nH]2)NC(=O)[C@H](C)NC(=O)CNC(=O)[C@H](Cc2c[nH]c3ccccc23)NC(=O)[C@H](CC(=O)O)NC(=O)[C@H](CCC(N)=O)NC(=O)[C@H](Cc2cn(C)c3ccccc23)NC(=O)[C@H](C(C)C)NC1=O`: the logIC50 amounted to 2.42.

In turn, `CC[C@H](C)[C@H](NC(C)=O)C(=O)N[C@H]1CSSC[C@@H](C(=O)N[C@H](C(N)=O)[C@@H](C)O)NC(=O)[C@H](CCCNC(=N)N)NC(=O)[C@H](Cc2cnc[nH]2)NC(=O)[C@H](C)NC(=O)CNC(=O)[C@H](Cc2c[nH]c3ccccc23)NC(=O)[C@H](CC(=O)O)NC(=O)[C@H](CCC(N)=O)NC(=O)[C@H](Cc2csc3ccccc23)NC(=O)[C@H](C(C)C)NC1=O` gave a logIC50 of 1.83. Regarding `CC[C@H](C)[C@H](NC(C)=O)C(=O)N[C@H]1CSSC[C@@H](C(=O)N[C@H](C(N)=O)[C@@H](C)O)NC(=O)[C@H](CCCNC(=N)N)NC(=O)[C@H](Cc2cnc[nH]2)NC(=O)[C@H](C)NC(=O)CNC(=O)[C@H](Cc2c[nH]c3ncccc23)NC(=O)[C@H](CC(=O)O)NC(=O)[C@H](CCC(N)=O)NC(=O)[C@H](Cc2c[nH]c3ncccc23)NC(=O)[C@H](C(C)C)NC1=O`, the logIC50 was -0.358. Compound `CC[C@H](C)[C@H](NC(C)=O)C(=O)N[C@H]1CSSC[C@@H](C(=O)N[C@H](C(N)=O)[C@@H](C)O)NC(=O)[C@H](CCCNC(=N)N)NC(=O)[C@H](Cc2cnc[nH]2)NC(=O)[C@H](Cc2cnc[nH]2)NC(=O)CNC(=O)[C@H](Cc2c[nH]c3ccccc23)NC(=O)[C@H](CC(=O)O)NC(=O)[C@H](CCC(N)=O)NC(=O)[C@H](C(C)C)NC(=O)[C@H](C(C)C)NC1=O` yielded a logIC50 of 0.477. The compound `CC[C@H](C)[C@H](NC(C)=O)C(=O)N[C@H]1CSSC[C@@H](C(=O)N[C@H](C(N)=O)[C@H](C)O)NC(=O)[C@H](CCCNC(=N)N)NC(=O)[C@H](Cc2cnc[nH]2)NC(=O)[C@H](C)NC(=O)CNC(=O)[C@H](Cc2c[nH]c3ccccc23)NC(=O)[C@H](CC(=O)O)NC(=O)[C@H](CCC(N)=O)NC(=O)[C@H](Cc2c[nH]c3ccc(F)cc23)NC(=O)[C@H](C(C)C)NC1=O` registered a logIC50 of 1.49. With `CC[C@H](C)[C@H](NC(C)=O)C(=O)N[C@H]1CSSC[C@@H](C(=O)N[C@H](C(N)=O)[C@H](C)O)NC(=O)[C@H](CCCNC(=N)N)NC(=O)[C@H](Cc2cnc[nH]2)NC(=O)[C@H](Cc2cnc[nH]2)NC(=O)CNC(=O)[C@H](Cc2c[nH]c3ccccc23)NC(=O)[C@H](CC(=O)O)NC(=O)[C@H](CCC(N)=O)NC(=O)[C@H](Cc2c[nH]c3ccccc23)NC(=O)[C@H](C(C)C)NC1=O` the figure was 1.39.
